Twelve compounds from paper PMC9488889, “Insight into mode-of-action and structural determinants of the compstatin family of clinical complement inhibitors” (Nature Communications, 2022) can be followed below.

Structures are written as SMILES. Where two headings read alike, the source gives them in different places. Bridge positions count the residues as written; N and C are the ends. Square brackets hold non-standard residues; d marks the D form. Peptide text beside a SMILES is read from it. Trp(1-Me) = Cn1cc(C[C@H](N)C(=O)O)c2ccccc21; NMeI = CC[C@H](C)[C@H](NC)C(=O)O; Sar = CNCC(=O)O

A word on the Kd: it is the free concentration of one partner at which half of the binding sites on the other are occupied at equilibrium, for simple one-to-one binding.

The target in this assay is T1, C3b (Homo sapiens, UniProt P01024).
T1 construct: the α’NT, MG6^α−8, anchor, and C-terminal complement (CTC) domains of the α-chain that are all shared between C3c and C3b; purchased Complement Technology (Tyler, TX, USA)
T1 sequence (P01024 23-667 limits assumed): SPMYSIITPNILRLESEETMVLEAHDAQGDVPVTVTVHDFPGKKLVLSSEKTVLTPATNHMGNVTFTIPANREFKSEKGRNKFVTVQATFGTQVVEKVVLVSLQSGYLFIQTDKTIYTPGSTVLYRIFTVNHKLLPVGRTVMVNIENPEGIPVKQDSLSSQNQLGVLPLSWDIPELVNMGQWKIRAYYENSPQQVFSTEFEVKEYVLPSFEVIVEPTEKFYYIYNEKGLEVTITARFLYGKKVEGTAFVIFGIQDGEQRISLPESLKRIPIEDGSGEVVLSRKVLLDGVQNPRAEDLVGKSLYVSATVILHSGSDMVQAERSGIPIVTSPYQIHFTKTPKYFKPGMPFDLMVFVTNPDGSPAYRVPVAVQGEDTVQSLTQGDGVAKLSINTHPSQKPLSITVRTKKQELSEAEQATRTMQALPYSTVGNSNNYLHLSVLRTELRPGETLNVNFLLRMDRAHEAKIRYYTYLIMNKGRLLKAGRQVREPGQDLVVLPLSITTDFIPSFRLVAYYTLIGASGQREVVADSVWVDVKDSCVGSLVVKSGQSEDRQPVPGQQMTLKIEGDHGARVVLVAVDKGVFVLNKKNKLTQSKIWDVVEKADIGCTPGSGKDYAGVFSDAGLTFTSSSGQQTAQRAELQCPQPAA
T1 sequence (P01024 749-1663 limits assumed): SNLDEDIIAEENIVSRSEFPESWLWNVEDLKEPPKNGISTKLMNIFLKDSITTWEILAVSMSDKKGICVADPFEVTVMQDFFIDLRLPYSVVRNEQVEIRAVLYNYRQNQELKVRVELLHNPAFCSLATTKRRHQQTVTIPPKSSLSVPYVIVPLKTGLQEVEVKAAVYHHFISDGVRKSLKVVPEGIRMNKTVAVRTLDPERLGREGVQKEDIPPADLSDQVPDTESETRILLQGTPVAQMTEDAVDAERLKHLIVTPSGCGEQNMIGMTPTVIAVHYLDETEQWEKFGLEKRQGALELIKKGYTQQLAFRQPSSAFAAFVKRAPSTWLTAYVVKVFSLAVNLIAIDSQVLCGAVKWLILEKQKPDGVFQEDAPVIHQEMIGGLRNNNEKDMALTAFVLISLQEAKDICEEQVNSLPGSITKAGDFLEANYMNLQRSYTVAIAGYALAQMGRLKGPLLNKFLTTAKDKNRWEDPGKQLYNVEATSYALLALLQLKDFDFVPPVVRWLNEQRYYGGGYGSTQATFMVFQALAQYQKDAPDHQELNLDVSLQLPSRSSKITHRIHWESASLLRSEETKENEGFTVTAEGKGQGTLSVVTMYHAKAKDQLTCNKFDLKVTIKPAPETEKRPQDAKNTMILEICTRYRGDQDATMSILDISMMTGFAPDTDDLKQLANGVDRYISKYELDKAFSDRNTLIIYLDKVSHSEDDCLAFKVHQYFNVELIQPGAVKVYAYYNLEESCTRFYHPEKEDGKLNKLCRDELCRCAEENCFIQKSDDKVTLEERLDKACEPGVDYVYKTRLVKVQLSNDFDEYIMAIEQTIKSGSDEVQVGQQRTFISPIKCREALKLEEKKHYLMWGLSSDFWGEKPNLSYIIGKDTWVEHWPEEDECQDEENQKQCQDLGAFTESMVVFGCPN
The assay is described as follows: SPR kinetic binding studies on immobilized C3b. As to conditions: for kd: Suppl. Fig. 7e, Cp40 analogs at position 5, three SPR experiments. The method, then:
All compstatin analogues were characterized concerning affinity and kinetic profiles by surface plasmon resonance (SPR) using a Biacore T200 instrument (Cytiva, Piscataway, USA). Experiments were run at 25 °C in HBST buffer (10 mM HEPES, 150 mM NaCl, 0.05% Tween-20, pH 7.4). C3b was immobilized on a carboxymethyl dextran hydrogel chip (CMD200; XanTec, Düsseldorf, Germany) using standard amine coupling in sodium acetate buffer pH 4.5 at a flow rate of 10 µl/min. Immobilization densities of 8000 and 4000 resonance units (RU) were achieved on separate flow cells. A reference flow cell was activated with the same method (NHS/EDC). All active sites were inactivated and blocked with ethanolamine. A single cycle approach at a flow rate of 30 µl/min was used for kinetic analysis by injecting five increasing concentrations of each compound (0.5–40 nM) consecutively without regeneration in-between injections. Individual injections within a cycle were 120 s long with a 60 sec dissociation phase between injections. After the highest concentration of each derivative, a dissociation period of 6,000–14,400 sec was added to ensure complete dissociation in absence of suitable regeneration method. […] Signals from the reference cell from an ensemble of buffer blank injections were subtracted to correct for buffer effects and injection artefacts. Kinetic data was processed with the Biacore T200 Software (version 3.1; Cytiva) using a single-cycle evaluation setup by global fitting each data set to a 1:1 Langmuir binding model. Association and dissociation rate constants (ka and kd, respectively) were fitted, and the equilibration constant KD was calculated based on the following equation: KD = kd/ka. Each assay was performed at least twice and in duplicate injections.
(SPR reads the build-up and loss of mass on a sensor chip optically.)

Where [1] appears, read: Table 1, amine-reactive immobilized C3b, 25 °C, average±SD of three independent SPR experiments, read-out: KD.
Setting [2] is: pH 7.4, read-out: ka, Dataset 1.
The mark [3] stands for this setting: pH 7.4, read-out: ka, Dataset 2.
[4] abbreviates: pH 7.4, read-out: ka, Dataset 3.
Setting [5] is: source data of Table 1, single SPR dataset 1, read-out: KD, Dataset 1.
Setting [6] is: source data of Table 1, single SPR dataset 2, read-out: KD, Dataset 2.
[7] abbreviates: source data of Table 1, single SPR dataset 3, read-out: KD, Dataset 3.

As to `CC[C@H](C)[C@H](NC(=O)[C@H](N)Cc1ccc(O)cc1)C(=O)N[C@H]1CSSC[C@@H](C(=O)N(C)[C@H](C(N)=O)[C@@H](C)CC)NC(=O)[C@H](CCCNC(=N)N)NC(=O)[C@H](Cc2c[nH]cn2)NC(=O)[C@H](C)NC(=O)CN(C)C(=O)[C@H](Cc2c[nH]c3ccccc23)NC(=O)[C@H](CC(=O)O)NC(=O)[C@H](CCC(N)=O)NC(=O)[C@H](Cc2cn(CCC(C)C)c3ccccc23)NC(=O)[C@H](C(C)C)NC1=O` [1(3Me)BuW], the kd is on record as 0.7 ± 0.0 10-3 s-1. Further, under “pH 7.4, read-out: ka”, the kon is 200000 M⁻¹ s⁻¹.
In the same order, the values of `CCCCn1cc(C[C@@H]2NC(=O)[C@H](C(C)C)NC(=O)[C@@H](NC(=O)[C@@H](NC(=O)[C@H](N)Cc3ccc(O)cc3)[C@@H](C)CC)CSSC[C@@H](C(=O)N(C)[C@H](C(N)=O)[C@@H](C)CC)NC(=O)[C@H](CCCNC(=N)N)NC(=O)[C@H](Cc3c[nH]cn3)NC(=O)[C@H](C)NC(=O)CN(C)C(=O)[C@H](Cc3c[nH]c4ccccc34)NC(=O)[C@H](CC(=O)O)NC(=O)[C@H](CCC(N)=O)NC2=O)c2ccccc21` [1BuW] are 0.5 ± 0.2 10-3 s-1 and 200000 M⁻¹ s⁻¹.
Consider `CC[C@H](C)[C@H](NC(=O)[C@H](N)Cc1ccc(O)cc1)C(=O)N[C@H]1CSSC[C@@H](C(=O)N(C)[C@H](C(N)=O)[C@@H](C)CC)NC(=O)[C@H](CCCNC(=N)N)NC(=O)[C@H](Cc2c[nH]cn2)NC(=O)[C@H](C)NC(=O)CN(C)C(=O)[C@H](Cc2c[nH]c3ccccc23)NC(=O)[C@H](CC(=O)O)NC(=O)[C@H](CCC(N)=O)NC(=O)[C@H](Cc2cn(CC)c3ccccc23)NC(=O)[C@H](C(C)C)NC1=O` [1EtW], for which the kd is on record as 1.2 ± 0.3 10-3 s-1. In addition, the kon (pH 7.4, read-out: ka) was 700000 ± 300000 M⁻¹ s⁻¹.
With `CC[C@H](C)[C@H](NC(C)=O)C(=O)N[C@H]1CSSC[C@@H](C(=O)N(C)[C@H](C(N)=O)[C@@H](C)CC)NC(=O)[C@H](CCCNC(=N)N)NC(=O)[C@H](Cc2c[nH]cn2)NC(=O)[C@H](C)NC(=O)CN(C)C(=O)[C@H](Cc2c[nH]c3ccccc23)NC(=O)[C@H](CC(=O)O)NC(=O)[C@H](CCC(N)=O)NC(=O)[C@H](Cc2cn(C)c3ccccc23)NC(=O)[C@H](C(C)C)NC1=O` [Cp20, reference compound], the Kd worked out at 3.4 ± 0.6 nM under setting [1], 3.78 nM under setting [5], 2.6 nM under setting [6] and 3.76 nM under setting [7]. The kon runs as follows: (pH 7.4, read-out: ka) 1.3e+06 ± 300000 M⁻¹ s⁻¹; under setting [2], 1.63e+06 M⁻¹ s⁻¹; under setting [3], 1.23e+06 M⁻¹ s⁻¹; under setting [4], 960000 M⁻¹ s⁻¹.
`CC[C@H](C)[C@H](NC(=O)[C@H](N)Cc1ccc(O)cc1)C(=O)N[C@H]1CSSC[C@@H](C(=O)N(C)[C@H](C(N)=O)[C@@H](C)CC)NC(=O)[C@H](CCCNC(=N)N)NC(=O)[C@H](Cc2c[nH]cn2)NC(=O)[C@H](C)NC(=O)CN(C)C(=O)[C@H](Cc2c[nH]c3ccccc23)NC(=O)[C@H](CC(=O)O)NC(=O)[C@H](CCC(N)=O)NC(=O)[C@H](Cc2c[nH]c3ccccc23)NC(=O)[C@H](C(C)C)NC1=O` [Cp40 (1MeW)5 W]: the kon reads like this: (pH 7.4, read-out: ka) 200000 M⁻¹ s⁻¹; under setting [2], 130000 M⁻¹ s⁻¹; under setting [3], 150000 M⁻¹ s⁻¹; under setting [4], 180000 M⁻¹ s⁻¹.
In the same order, the values of `CC[C@H](C)[C@H](NC(=O)[C@H](N)Cc1ccc(O)cc1)C(=O)N[C@H]1CSSC[C@@H](C(=O)N(C)[C@H](C(N)=O)[C@@H](C)CC)NC(=O)[C@H](CCCNC(=N)N)NC(=O)[C@H](Cc2c[nH]cn2)NC(=O)[C@H](C)NC(=O)CN(C)C(=O)[C@H](Cc2c[nH]c3ccccc23)NC(=O)[C@H](CCC(=O)O)NC(=O)[C@H](CCC(N)=O)NC(=O)[C@H](Cc2cn(C)c3ccccc23)NC(=O)[C@H](C(C)C)NC1=O` [Cp40 D7E] (H-[dY]ICV[Trp(1-Me)]QEW[Sar]AHRC[NMeI]-NH2; disulfide 3-13) are 900000 ± 200000 M⁻¹ s⁻¹, 1.17e+06 M⁻¹ s⁻¹, 650000 M⁻¹ s⁻¹ and 730000 M⁻¹ s⁻¹.
Regarding `CC[C@H](C)[C@H](NC(=O)[C@H](N)Cc1ccc(O)cc1)C(=O)N[C@H]1CSSC[C@@H](C(=O)N(C)[C@H](C(N)=O)[C@@H](C)CC)NC(=O)[C@H](CO)NC(=O)[C@H](Cc2c[nH]cn2)NC(=O)[C@H](C)NC(=O)CN(C)C(=O)[C@H](Cc2c[nH]c3ccccc23)NC(=O)[C@H](CO)NC(=O)[C@H](CCC(N)=O)NC(=O)[C@H](Cc2cn(C)c3ccccc23)NC(=O)[C@H](C(C)C)NC1=O` [Cp40 D7S/R12S] (H-[dY]ICV[Trp(1-Me)]QSW[Sar]AHSC[NMeI]-NH2; disulfide 3-13), the Kd by setting is: under setting [1], 59.1 ± 41.3 nM; under setting [5], 117 nM; under setting [6], 34.7 nM; under setting [7], 25.5 nM. For the same compound, the kon reads like this: (pH 7.4, read-out: ka) 100000 M⁻¹ s⁻¹; under setting [2], 20000 M⁻¹ s⁻¹; under setting [3], 120000 M⁻¹ s⁻¹; under setting [4], 220000 M⁻¹ s⁻¹.
Take `CC[C@H](C)[C@H](NC(=O)[C@H](N)Cc1ccc(O)cc1)C(=O)N[C@H]1CSSC[C@@H](C(=O)N(C)[C@H](C(N)=O)[C@@H](C)CC)NC(=O)[C@H](CCCNC(=N)N)NC(=O)[C@H](Cc2c[nH]cn2)NC(=O)[C@H](C)NC(=O)CN(C)C(=O)[C@H](Cc2c[nH]c3ccccc23)NC(=O)[C@H](CO)NC(=O)[C@H](CCC(N)=O)NC(=O)[C@H](Cc2cn(C)c3ccccc23)NC(=O)[C@H](C(C)C)NC1=O` [Cp40 D7S] (H-[dY]ICV[Trp(1-Me)]QSW[Sar]AHRC[NMeI]-NH2; disulfide 3-13): the Kd amounted to 5.6 ± 1.3 nM under setting [1], 4.85 nM under setting [5], 7.48 nM under setting [6] and 4.45 nM under setting [7]. Moreover, the kon (pH 7.4, read-out: ka) was found to be 100000 M⁻¹ s⁻¹; the kon under setting [2] was found to be 80000 M⁻¹ s⁻¹; the kon under setting [3] came out at 50000 M⁻¹ s⁻¹; the kon under setting [4] worked out at 170000 M⁻¹ s⁻¹.
In the case of `CC[C@H](C)[C@H](NC(=O)[C@H](N)Cc1ccc(O)cc1)C(=O)N[C@H]1CSSC[C@@H](C(=O)N(C)[C@H](C(N)=O)[C@@H](C)CC)NC(=O)[C@H](CCCNC(N)=O)NC(=O)[C@H](Cc2c[nH]cn2)NC(=O)[C@H](C)NC(=O)CN(C)C(=O)[C@H](Cc2c[nH]c3ccccc23)NC(=O)[C@H](CC(=O)O)NC(=O)[C@H](CCC(N)=O)NC(=O)[C@H](Cc2cn(C)c3ccccc23)NC(=O)[C@H](C(C)C)NC1=O` [Cp40 R12Cit], the kon (pH 7.4, read-out: ka) was 600000 ± 100000 M⁻¹ s⁻¹; the kon under setting [2] came out at 320000 M⁻¹ s⁻¹; the kon under setting [3] is 670000 M⁻¹ s⁻¹; the kon under setting [4] was determined as 790000 M⁻¹ s⁻¹.
With `CC[C@H](C)[C@H](NC(=O)[C@H](N)Cc1ccc(O)cc1)C(=O)N[C@H]1CSSC[C@@H](C(=O)N(C)[C@H](C(N)=O)[C@@H](C)CC)NC(=O)[C@H](CCCCN)NC(=O)[C@H](Cc2c[nH]cn2)NC(=O)[C@H](C)NC(=O)CN(C)C(=O)[C@H](Cc2c[nH]c3ccccc23)NC(=O)[C@H](CC(=O)O)NC(=O)[C@H](CCC(N)=O)NC(=O)[C@H](Cc2cn(C)c3ccccc23)NC(=O)[C@H](C(C)C)NC1=O` [Cp40 R12K] (H-[dY]ICV[Trp(1-Me)]QDW[Sar]AHKC[NMeI]-NH2; disulfide 3-13), the kon by setting is: under setting [2], 630000 M⁻¹ s⁻¹; under setting [3], 470000 M⁻¹ s⁻¹; under setting [4], 780000 M⁻¹ s⁻¹.
Take `CC[C@H](C)[C@H](NC(=O)[C@H](N)Cc1ccc(O)cc1)C(=O)N[C@H]1CSSC[C@@H](C(=O)N(C)[C@H](C(N)=O)[C@@H](C)CC)NC(=O)[C@H](CO)NC(=O)[C@H](Cc2c[nH]cn2)NC(=O)[C@H](C)NC(=O)CN(C)C(=O)[C@H](Cc2c[nH]c3ccccc23)NC(=O)[C@H](CC(=O)O)NC(=O)[C@H](CCC(N)=O)NC(=O)[C@H](Cc2cn(C)c3ccccc23)NC(=O)[C@H](C(C)C)NC1=O` [Cp40 R12S] (H-[dY]ICV[Trp(1-Me)]QDW[Sar]AHSC[NMeI]-NH2; disulfide 3-13): the Kd is, setting by setting: under setting [1], 9.9 ± 0.5 nM; under setting [5], 10.2 nM; under setting [6], 10.3 nM; under setting [7], 9.22 nM. Besides, the kon (pH 7.4, read-out: ka) came out at 200000 M⁻¹ s⁻¹; the kon under setting [2] was 140000 M⁻¹ s⁻¹; the kon under setting [3] was determined as 180000 M⁻¹ s⁻¹; the kon under setting [4] amounted to 220000 M⁻¹ s⁻¹.
Consider `CC[C@H](C)[C@H](NC(=O)[C@H](N)Cc1ccc(O)cc1)C(=O)N[C@H]1CSSC[C@@H](C(=O)N(C)[C@H](C(N)=O)[C@@H](C)CC)NC(=O)[C@H](CCCNC(=N)N)NC(=O)[C@H](Cc2c[nH]cn2)NC(=O)[C@H](C)NC(=O)CNC(=O)[C@H](Cc2c[nH]c3ccccc23)NC(=O)[C@H](CC(=O)O)NC(=O)[C@H](CCC(N)=O)NC(=O)[C@H](Cc2cn(C)c3ccccc23)NC(=O)[C@H](C(C)C)NC1=O` [Cp40 Sar9G], for which the Kd under setting [1] was 1.7 ± 0.7 nM, the Kd under setting [5] came to 0.92 nM, the Kd under setting [6] worked out at 1.39 nM and the Kd under setting [7] amounted to 2.63 nM. For the same compound, the kon worked out at 900000 ± 400000 M⁻¹ s⁻¹ (pH 7.4, read-out: ka); 1.29e+06 M⁻¹ s⁻¹ under setting [2]; 1.1e+06 M⁻¹ s⁻¹ under setting [3]; 360000 M⁻¹ s⁻¹ under setting [4].
